Measurements from PubChem BioAssay (NCI).
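These data come from cells grown in 96-well plates and exposed to compound for 48 hours at five concentrations. Here, GI50 denotes the concentration required for 50% inhibition of growth. Definition used: TGI = concentration required for complete inhibition of growth.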

Tests used:
Assay in all cases: NCI anticancer screen, dose series, 48 h
[1] = system: SW-620 colon
[2] = system: HS 578T breast
[3] = system: U251 CNS
[4] = system: RXF 393 renal
[5] = system: UACC-62 melanoma
[6] = system: K-562 leukemia
[7] = system: MCF7 breast
[8] = system: SK-OV-3 ovarian
[9] = system: MOLT-4 leukemia
[10] = system: HCC-2998 colon
[11] = system: HT29 colon
[12] = system: OVCAR-3 ovarian
[13] = system: OVCAR-5 ovarian
[14] = system: KM12 colon
[15] = system: PC-3 prostate
[16] = system: MDA-MB-435
[17] = system: NCI-H23 lung
[18] = system: A549 NSCLC
[19] = system: SF-539 CNS
[20] = system: EKVX NSCLC
[21] = system: NCI-H522 lung
[22] = system: UACC-257 melanoma
[23] = system: UO-31 renal
[24] = system: TK-10 renal
[25] = system: RPMI-8226 leukemia
[26] = system: 786-0 renal
[27] = system: SNB-75 CNS
[28] = system: HOP-62 NSCLC
[29] = system: COLO 205 colon
[30] = system: NCI/ADR-RES ovarian
[31] = system: HCT-15 colon
[32] = system: SK-MEL-2 melanoma
[33] = system: OVCAR-4 ovarian
[34] = system: HL-60(TB) leukemia
[35] = system: SK-MEL-28 melanoma
[36] = system: CAKI-1 renal
[37] = system: T-47D breast
[38] = system: MALME-3M melanoma
[39] = system: CCRF-CEM leukemia
[40] = system: NCI-H226 lung
[41] = system: LOX IMVI melanoma
[42] = system: SK-MEL-5 melanoma
[43] = system: DU-145 prostate
[44] = system: SNB-19 CNS
[45] = system: SF-295 CNS
[46] = system: ACHN renal
[47] = system: M14 melanoma
[48] = system: MDA-MB-231 breast
[49] = system: OVCAR-8 ovarian
[50] = system: NCI-H460 lung
[51] = system: SN12C renal
[52] = system: HCT-116 colon
[53] = system: SF-268 CNS
[54] = system: A498 renal
[55] = system: SR leukemia
[56] = system: HOP-92 NSCLC
[57] = system: IGROV1 ovarian

Work on `C=C(CN1CCc2ccccc2C1)c1ccc(CCCC(=O)Nc2ccccc2N)cc1` yielded a GI50 [1] of 15.6 µM, a TGI [1] of 32.1 µM and a GI50 [2] of 14 µM. The TGI [2] was 43.4 µM, the GI50 [3] was 18.4 µM and the TGI [3] was 44.5 µM. For the same molecule, the GI50 [4] was 17.1 µM, the TGI [4] was 35.7 µM and the GI50 [5] was 15.1 µM. For the same molecule, the TGI [5] was 30.8 µM, the GI50 [6] was 0.505 µM and the TGI [6] was 25.3 µM. For the same molecule, the GI50 [7] was 8.45 µM, the TGI [7] was over 100 µM and the GI50 [8] was 19.4 µM. For the same molecule, the TGI [8] was 52.9 µM, the GI50 [9] was 1.28 µM and the TGI [9] was 15.3 µM. For the same molecule, the GI50 [10] was 21.1 µM, the TGI [10] was 43.2 µM and the GI50 [11] was 13.1 µM. The TGI [11] was 30.4 µM, the GI50 [12] was 9.81 µM and the TGI [12] was 22.2 µM. The GI50 [13] was 26.5 µM, the TGI [13] was 80.2 µM and the GI50 [14] was 11.1 µM. The TGI [14] was 27.2 µM, the GI50 [15] was 10.5 µM and the TGI [15] was 30.3 µM. The GI50 [16] was 11.9 µM, the TGI [16] was 26.4 µM and the GI50 [17] was 20.1 µM. For the same molecule, the TGI [17] was 48.6 µM, the GI50 [18] was 16.4 µM and the TGI [18] was 58.8 µM. For the same molecule, the GI50 [19] was 11.4 µM, the TGI [19] was 24 µM and the GI50 [20] was 12 µM. For the same molecule, the TGI [20] was 47.1 µM, the GI50 [21] was 1.92 µM and the TGI [21] was 7.15 µM. For the same molecule, the GI50 [22] was 17.4 µM, the TGI [22] was 42 µM and the GI50 [23] was 2.7 µM. For the same molecule, the TGI [23] was 17.7 µM, the GI50 [24] was 41.3 µM and the TGI [24] was over 100 µM. For the same molecule, the GI50 [25] was 5.37 µM, the TGI [25] was 22.2 µM and the GI50 [26] was 12.1 µM. It also gave a TGI [26] of 28.2 µM, a GI50 [27] of 3.33 µM and a TGI [27] of 27.7 µM. The GI50 [28] was 22.7 µM, the TGI [28] was 75.2 µM and the GI50 [29] was 17 µM. It also gave a TGI [29] of 33.1 µM, a GI50 [30] of 17.4 µM and a TGI [30] of 51.6 µM. It also gave a GI50 [31] of 28 µM, a TGI [31] of over 100 µM and a GI50 [32] of 14.5 µM. The TGI [32] was 31.8 µM, the GI50 [33] was 14.5 µM and the TGI [33] was 49.8 µM. It also gave a GI50 [34] of 7.13 µM, a TGI [34] of 31.3 µM and a GI50 [35] of 15.7 µM. For the same molecule, the TGI [35] was 29.7 µM, the GI50 [36] was 17.9 µM and the TGI [36] was 82.5 µM. It also gave a GI50 [37] of 11.2 µM, a TGI [37] of 59.3 µM and a GI50 [38] of 11.7 µM. It also gave a TGI [38] of 25.7 µM, a GI50 [39] of 3.06 µM and a TGI [39] of over 100 µM. The GI50 [40] was 28.8 µM, the TGI [40] was 94.6 µM and the GI50 [41] was 9.15 µM. The TGI [41] was 21.7 µM, the GI50 [42] was 5.01 µM and the TGI [42] was 17.3 µM. It also gave a GI50 [43] of 11.3 µM, a TGI [43] of 30.4 µM and a GI50 [44] of 23.2 µM. It also gave a TGI [44] of over 100 µM, a GI50 [45] of 14.6 µM and a TGI [45] of 39.9 µM. The GI50 [46] was 25.9 µM, the TGI [46] was over 100 µM and the GI50 [47] was 15.8 µM. For the same molecule, the TGI [47] was 33 µM, the GI50 [48] was 10.2 µM and the TGI [48] was 26.3 µM. It also gave a GI50 [49] of 18.4 µM, a TGI [49] of 62.8 µM and a GI50 [50] of over 100 µM. It also gave a TGI [50] of over 100 µM, a GI50 [51] of 13 µM and a TGI [51] of 28.4 µM. The GI50 [52] was 12.8 µM, the TGI [52] was 33.3 µM and the GI50 [53] was over 100 µM. For the same molecule, the TGI [53] was over 100 µM, the GI50 [54] was 12.6 µM and the TGI [54] was 26.1 µM.
Molecule `COc1cccc(C2C(C#N)=C(N)Oc3cc(OCCCCCC[P+](c4ccccc4)(c4ccccc4)c4ccccc4)ccc32)c1` (stereo not given) has a GI50 [2] of 0.608 µM, a TGI [2] of 2.78 µM and a GI50 [6] of 0.334 µM. It also gave a TGI [6] of over 23.7 µM, a GI50 [8] of 1.41 µM and a TGI [8] of 3.26 µM. It also gave a GI50 [9] of 1.22 µM, a TGI [9] of 3.96 µM and a GI50 [10] of 0.493 µM. For the same molecule, the TGI [10] was 1.68 µM, the GI50 [11] was 0.613 µM and the TGI [11] was 3.67 µM. It also gave a GI50 [12] of 0.382 µM, a TGI [12] of 1.37 µM and a GI50 [13] of 1.35 µM. It also gave a TGI [13] of 3.15 µM, a GI50 [14] of 0.433 µM and a TGI [14] of 1.58 µM. The GI50 [16] was 0.357 µM, the TGI [16] was 1.31 µM and the GI50 [17] was 0.624 µM. For the same molecule, the TGI [17] was 2.83 µM, the GI50 [18] was 1.53 µM and the TGI [18] was 4.51 µM. The GI50 [19] was 0.745 µM, the TGI [19] was 2.12 µM and the GI50 [21] was 0.515 µM. For the same molecule, the TGI [21] was 2.49 µM, the GI50 [23] was 1.91 µM and the TGI [23] was 4.69 µM. For the same molecule, the GI50 [24] was 1.46 µM, the TGI [24] was 2.99 µM and the GI50 [25] was 0.194 µM. It also gave a TGI [25] of 0.659 µM, a GI50 [27] of 0.21 µM and a TGI [27] of 2.11 µM. The GI50 [28] was 1.62 µM, the TGI [28] was 4.16 µM and the GI50 [30] was 11.9 µM. The TGI [30] was 78.3 µM, the GI50 [31] was 2.24 µM and the TGI [31] was 6.14 µM. The GI50 [55] was 0.36 µM, the TGI [55] was 1.92 µM and the GI50 [33] was 0.384 µM. It also gave a TGI [33] of 1.51 µM, a GI50 [34] of 0.263 µM and a TGI [34] of 0.738 µM. For the same molecule, the GI50 [35] was 0.477 µM, the TGI [35] was 1.69 µM and the GI50 [36] was 1.68 µM. It also gave a TGI [36] of 3.48 µM, a GI50 [37] of 0.354 µM and a TGI [37] of 1.95 µM. It also gave a GI50 [39] of 0.596 µM, a TGI [39] of 3.36 µM and a GI50 [56] of 0.23 µM. For the same molecule, the TGI [56] was 0.912 µM, the GI50 [43] was 0.95 µM and the TGI [43] was 2.21 µM. For the same molecule, the GI50 [44] was 0.366 µM, the TGI [44] was 1.44 µM and the GI50 [45] was 1.58 µM. The TGI [45] was 3.19 µM, the GI50 [46] was 2.04 µM and the TGI [46] was 4.92 µM. The GI50 [54] was 1.03 µM and the TGI [54] was 2.45 µM.
With `Cc1c(C(=O)O)sc2nc[nH]c(=O)c12` the TGI [1] was over 100 µM, the TGI [2] was 79.5 µM and the TGI [3] was over 100 µM. For the same molecule, the TGI [4] was over 100 µM, the TGI [5] was over 100 µM and the TGI [6] was over 100 µM. The TGI [7] was over 100 µM, the TGI [8] was over 100 µM and the TGI [9] was over 100 µM. It also gave a TGI [10] of over 100 µM, a TGI [11] of over 100 µM and a TGI [12] of over 100 µM. For the same molecule, the TGI [13] was over 100 µM, the TGI [14] was over 100 µM and the TGI [15] was over 100 µM. The TGI [16] was over 100 µM, the TGI [17] was over 100 µM and the TGI [18] was over 100 µM. For the same molecule, the TGI [19] was over 100 µM, the TGI [20] was over 100 µM and the TGI [21] was over 100 µM. It also gave a TGI [22] of over 100 µM, a TGI [23] of over 100 µM and a TGI [24] of over 100 µM. For the same molecule, the TGI [25] was over 100 µM, the TGI [26] was over 100 µM and the TGI [27] was over 100 µM. For the same molecule, the TGI [28] was over 100 µM, the TGI [57] was over 100 µM and the TGI [29] was over 100 µM. The TGI [30] was over 100 µM, the TGI [31] was over 100 µM and the TGI [32] was over 100 µM. For the same molecule, the TGI [33] was over 100 µM, the TGI [34] was over 100 µM and the TGI [35] was over 100 µM. It also gave a TGI [36] of over 100 µM, a TGI [37] of over 100 µM and a TGI [38] of over 100 µM. It also gave a TGI [40] of over 100 µM, a TGI [41] of over 100 µM and a TGI [56] of over 100 µM. The TGI [42] was over 100 µM, the TGI [43] was over 100 µM and the TGI [44] was over 100 µM. The TGI [45] was over 100 µM, the TGI [46] was over 100 µM and the TGI [47] was over 100 µM. It also gave a TGI [48] of over 100 µM, a TGI [49] of over 100 µM and a TGI [50] of over 100 µM. It also gave a TGI [51] of over 100 µM, a TGI [52] of over 100 µM and a TGI [53] of over 100 µM.
